Laboratory results as given in patent US11370774B2, “Substituted benzofuran, benzopyrrole, benzothiophene, and structurally related complement inhibitors” (BioCryst Pharmaceuticals, Inc., priority 2018, dated 2022).
pIC50: −log10 of the molar value.

These molecules were tested against Factor D (Homo sapiens (Human), UniProt P00746) (assay: Factor D esterolytic assay (Z-Lys-SBzl substrate, DTNB, 405 nm)). Conditions: Z-Lys-SBzl 1.29 mM, pH 7.5, 10% DMSO, tested a minimum of three times, read-out: Measured Ki (IC50) Value for Compounds: IC50.
Sequence of Factor D (P00746 26-253): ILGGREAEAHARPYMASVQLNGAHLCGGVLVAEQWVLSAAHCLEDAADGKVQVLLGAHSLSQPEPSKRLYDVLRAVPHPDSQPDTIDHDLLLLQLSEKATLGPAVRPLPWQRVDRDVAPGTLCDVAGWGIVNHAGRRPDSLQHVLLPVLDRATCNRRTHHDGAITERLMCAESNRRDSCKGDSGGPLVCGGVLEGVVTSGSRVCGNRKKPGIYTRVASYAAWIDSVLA
Format: biochemical
Procedure, shortened: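 Human Factor D ([…]) with 1.29 mM Z-Lys-SBzl in 100 mM HEPES, 500 mM NaCl, pH 7.5, 10% DMSO; substrate added immediately or after room-temperature preincubation. Released thiol reacted with DTNB, rate followed at 405 nm for 600 sec, 690 nm background subtracted. IC50 from percent inhibition versus uninhibited rate, n≥3.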
In the case of `COc1ccc(CC(=O)O)c(OCc2cc(-c3ccnc(CN)c3F)c3occc3c2F)c1` [Compound 385d, 2-(2-((7-(2-(aminomethyl)-3-fluoropyridin-4-yl)-4-fluorobenzofuran-5-yl)methoxy)-4-methoxyphenyl)acetic acid], the pIC50 was greater than 6.00.
`NCc1cccc(-c2cc(COc3ccc(F)cc3CC(=O)O)c(F)c3ccoc23)c1` [Compound 386c, 2-(2-((7-(3-(aminomethyl)phenyl)-4-fluorobenzofuran-5-yl)methoxy)-5-fluorophenyl)acetic acid] was tested, and the pIC50 was greater than 6.00.
`NCc1cccc(-c2cc(COc3ccc(F)cc3CC(=O)O)c(F)c3ccoc23)c1F` [Compound 387b, 2-(2-((7-(3-(aminomethyl)-2-fluorophenyl)-4-fluorobenzofuran-5-yl)methoxy)-5-fluorophenyl)acetic acid] gave a pIC50 greater than 6.00.
`NCc1nccc(-c2cc(COc3ccc(F)cc3CC(=O)O)c(F)c3ccoc23)c1F` [Compound 388d, 2-(2-((7-(2-(aminomethyl)-3-fluoropyridin-4-yl)-4-fluorobenzofuran-5-yl)methoxy)-5-fluorophenyl)acetic acid] gave a pIC50 greater than 6.00.
Work on `NCc1cc(-c2cc(COc3ccc(F)cc3CC(=O)O)c(F)c3ccoc23)ccn1` [Compound 389c, 2-(2-((7-(2-(aminomethyl)pyridin-4-yl)-4-fluorobenzofuran-5-yl)methoxy)-5-fluorophenyl)acetic acid] yielded a pIC50 greater than 6.00.
`CCc1ccc(CC(=O)O)c(OCc2cc(-c3ccnc(CN)c3)c3oc(F)cc3c2)c1` [Compound 390c, 2-(2-((7-(2-(aminomethyl)pyridin-4-yl)-2-fluorobenzofuran-5-yl)methoxy)-4-ethylphenyl)acetic acid] showed a pIC50 greater than 6.00.
`NCc1cccc(-c2cc(COc3cc(-c4ccccc4)ccc3CC(=O)O)cc3ccoc23)c1F` [Compound 391f, 2-(3-((7-(3-(aminomethyl)-2-fluorophenyl)benzofuran-5-yl)methoxy)-[1,1′-biphenyl]-4-yl)acetic acid] was tested, and the pIC50 was greater than 6.00.
With `NCc1cccc(-c2cc(COc3c(CC(=O)O)ccc4ccoc34)cc3ccoc23)c1` [Compound 392g, 2-(7-((7-(3-(aminomethyl)phenyl)benzofuran-5-yl)methoxy)benzofuran-6-yl)acetic acid] the pIC50 was greater than 6.00.
Molecule `NCc1cc(-c2cc(COc3cc(-c4ccccc4)ccc3CC(=O)O)cc3ccoc23)ccn1` [Compound 393d, 2-(3-((7-(2-(aminomethyl)pyridin-4-yl)benzofuran-5-yl)methoxy)-[1,1′-biphenyl]-4-yl)acetic acid] has a pIC50 greater than 6.00.
For `NCc1nccc(-c2cc(COc3cc(-c4ccccc4)ccc3CC(=O)O)cc3ccoc23)c1F` [Compound 394c, 2-(3-((7-(2-(aminomethyl)-3-fluoropyridin-4-yl)benzofuran-5-yl)methoxy)-[1,1′-biphenyl]-4-yl)acetic acid], the pIC50 was greater than 6.00.
For `NCc1cccc(-c2cc(COc3cc(C4CCCC4)ccc3CC(=O)O)cc3ccoc23)c1` [Compound 395c, 2-(2-((7-(3-(aminomethyl)phenyl)benzofuran-5-yl)methoxy)-4-cyclopentylphenyl)acetic acid], the pIC50 was greater than 6.00.
Work on `Cn1cc(-c2ccc(CC(=O)O)c(OCc3cc(-c4cccc(CN)c4)c4occc4c3)c2)cn1` [Compound 396e, 2-(2-((7-(3-(aminomethyl)phenyl)benzofuran-5-yl)methoxy)-4-(1-methyl-1H-pyrazol-4-yl)phenyl)acetic acid] yielded a pIC50 greater than 6.00.
Molecule `COc1ccc(-c2ccc(CC(=O)O)c(OCc3cc(-c4cccc(CN)c4)c4occc4c3)c2)c(F)c1` [Compound 397e, 2-(3-((7-(3-(aminomethyl)phenyl)benzofuran-5-yl)methoxy)-2′-fluoro-4′-methoxy-[1,1′-biphenyl]-4-yl)acetic acid] has a pIC50 greater than 6.00.
In the case of `NCc1cccc(-c2cc(COc3cc(-c4ccc(F)cc4)ccc3CC(=O)O)cc3ccoc23)c1` [Compound 398c, 2-(3-((7-(3-(aminomethyl)phenyl)benzofuran-5-yl)methoxy)-4′-fluoro-[1,1′-biphenyl]-4-yl)acetic acid], the pIC50 was greater than 6.00.
Work on `NCc1cccc(-c2cc(COc3c(CC(=O)O)ccc4ccccc34)cc3ccoc23)c1` [Compound 399d, 2-(1-((7-(3-(aminomethyl)phenyl)benzofuran-5-yl)methoxy)naphthalen-2-yl)acetic acid] yielded a pIC50 greater than 6.00.
In the case of `NCc1cccc(-c2cc(COc3ccc4ccccc4c3CC(=O)O)cc3ccoc23)c1` [Compound 400e, 2-(2-((7-(3-(aminomethyl)phenyl)benzofuran-5-yl)methoxy)naphthalen-1-yl)acetic acid], the pIC50 was greater than 6.00.
`NCc1cccc(-c2cc(COc3cc4ccccc4cc3CC(=O)O)cc3ccoc23)c1` [Compound 401e, 2-(3-((7-(3-(aminomethyl)phenyl)benzofuran-5-yl)methoxy)naphthalen-2-yl)acetic acid] showed a pIC50 greater than 6.00.
For `NCc1cccc(-c2cc(N(Cc3ccccc3CC(=O)O)C(=O)OCc3ccccc3)cc3ccoc23)c1` [Compound 404c, 2-(2-(((7-(3-(aminomethyl)phenyl)benzofuran-5-yl)((benzyloxy)carbonyl)amino)methyl)phenyl)acetic acid], the pIC50 was greater than 6.00.
For `NCc1ccc(CC(=O)O)c(OCc2cc(-c3ccnc(CN)c3F)c3occc3c2)c1` [Compound 405e, 2-(4-(aminomethyl)-2-((7-(2-(aminomethyl)-3-fluoropyridin-4-yl)benzofuran-5-yl)methoxy)phenyl)acetic acid], the pIC50 was greater than 6.00.
`NCc1cccc(-c2cc(COc3ccccc3CC(=O)O)cc3cc(CN)oc23)c1` [Compound 406e, 2-(2-((2-(aminomethyl)-7-(3-(aminomethyl)phenyl)benzofuran-5-yl)methoxy)phenyl)acetic acid] gave a pIC50 greater than 6.00.
`NCc1cccc(-c2cc(NC(=O)N3CCCC3CC(=O)O)cc3ccoc23)c1` (centres unmarked) [Compound 407d, 2-(1-((7-(3-(aminomethyl)phenyl)benzofuran-5-yl)carbamoyl)pyrrolidin-2-yl)acetic acid] was tested, and the pIC50 was less than 5.00.
`NCc1cccc(-c2cc(NC(=O)[C@H]3CCCN3CC(=O)O)cc3ccoc23)c1` [Compound 408e, (R)-2-(2-((7-(3-(aminomethyl)phenyl)benzofuran-5-yl)carbamoyl)pyrrolidin-1-yl)acetic acid] showed a pIC50 of less than 5.00.
`Cc1cc2c(-c3cccc(CN)c3F)cc(COc3ccccc3CC(=O)O)cc2o1` [Compound 409f, 2-(2-((4-(3-(aminomethyl)-2-fluorophenyl)-2-methylbenzofuran-6-yl)methoxy)phenyl)acetic acid] was tested, and the pIC50 was greater than 6.00.
`NCc1cccc(-c2cc(COc3cc(C(N)=O)ccc3CC(=O)O)cc3ccoc23)c1F` [Compound 411e, 2-(2-((7-(3-(aminomethyl)-2-fluorophenyl)benzofuran-5-yl)methoxy)-4-carbamoylphenyl)acetic acid] gave a pIC50 greater than 6.00.
Work on `Cc1c(COc2ccccc2CC(=O)O)cc2ccoc2c1-c1cccc(CN)c1` [Compound 413m, 2-(2-((7-(3-(aminomethyl)phenyl)-6-methylbenzofuran-5-yl)methoxy)phenyl)acetic acid] yielded a pIC50 greater than 6.00.
For `Cc1c(COc2ccccc2CC(=O)O)cc(-c2cccc(CN)c2)c2occc12` [Compound 413n, 2-(2-((7-(3-(aminomethyl)phenyl)-4-methylbenzofuran-5-yl)methoxy)phenyl)acetic acid], the pIC50 was greater than 6.00.
Work on `N#Cc1ccc(CC(=O)O)c(OCc2cc(-c3cccc(CN)c3F)c3occc3c2)c1` [Compound 414b, 2-(2-((7-(3-(aminomethyl)-2-fluorophenyl)benzofuran-5-yl)methoxy)-4-cyanophenyl)acetic acid] yielded a pIC50 greater than 6.00.
For `COCc1cc2cc(COc3cc(C)ccc3CC(=O)O)cc(-c3cccc(CN)c3)c2o1` [Compound 415e, 2-(2-((7-(3-(aminomethyl)phenyl)-2-(methoxymethyl)benzofuran-5-yl)methoxy)-4-methylphenyl)acetic acid], the pIC50 was greater than 6.00.
Molecule `COCc1cc2cc(COc3cc(C#N)ccc3CC(=O)O)cc(-c3cccc(CN)c3F)c2o1` [Compound 416d, 2-(2-((7-(3-(aminomethyl)-2-fluorophenyl)-2-(methoxymethyl)benzofuran-5-yl)methoxy)-4-cyanophenyl)acetic acid] has a pIC50 greater than 6.00.
In the case of `COCc1cc2cc(COc3cc(NC(C)=O)ccc3CC(=O)O)cc(-c3cccc(CN)c3)c2o1` [Compound 417e, 2-(4-acetamido-2-((7-(3-(aminomethyl)phenyl)-2-(methoxymethyl)benzofuran-5-yl)methoxy)phenyl)acetic acid], the pIC50 was greater than 6.00.
Molecule `NCc1cccc(-c2cc(NC(=O)N3CCC[C@H]3C(=O)NCc3cccc(Cl)c3F)cc3ccoc23)c1` [Compound 418c, (S)—N1-(7-(3-(aminomethyl)phenyl)benzofuran-5-yl)-N2-(3-chloro-2-fluorobenzyl)pyrrolidine-1,2-dicarboxamide] has a pIC50 greater than 6.00.
`Cc1cc2cc(COc3cc(C#N)ccc3CC(=O)O)cc(-c3cccc(CN)c3)c2o1` [Compound 419c, 2-(2-((7-(3-(aminomethyl)phenyl)-2-methylbenzofuran-5-yl)methoxy)-4-cyanophenyl)acetic acid] gave a pIC50 greater than 6.00.
In the case of `Cc1ccc(CC(=O)O)c(OCc2cc(-c3cccc(CN)c3)c3oc(CO)cc3c2)c1` [Compound 420e, 2-(2-((7-(3-(aminomethyl)phenyl)-2-(hydroxymethyl)benzofuran-5-yl)methoxy)-4-methylphenyl)acetic acid], the pIC50 was greater than 6.00.
In the case of `CC(=O)Nc1ccc(CC(=O)O)c(OCc2cc(-c3cccc(CN)c3)c3oc(CO)cc3c2)c1` [Compound 421e, 2-(4-acetamido-2-((7-(3-(aminomethyl)phenyl)-2-(hydroxymethyl)benzofuran-5-yl)methoxy)phenyl)acetic acid], the pIC50 was greater than 6.00.
Work on `N#Cc1ccc(CC(=O)O)c(OCc2cc(-c3cccc(CN)c3)c3oc(CO)cc3c2)c1` [Compound 422e, 2-(2-((7-(3-(aminomethyl)phenyl)-2-(hydroxymethyl)benzofuran-5-yl)methoxy)-4-cyanophenyl)acetic acid] yielded a pIC50 greater than 6.00.
